Experimental data taken from patent publication EP0237411A1, “(Piperidino-3)propoxy-5p-cymene, its acetyl, acetoxy and hydroxy derivatives, salts of these products, process for the preparation of these compounds and medicines containing at least one of these products as active principle” (INSTITUT DE RECHERCHES CHIMIQUES ET BIOLOGIQUES APPLIQUEES …, priority 1986, dated 1987).
Like-named read-outs stand apart in the source and are kept apart here.

Experiments:
[1] = test system: canal déférent isolé de rat; assay: α-adrenolytic action in vitro: antagonism of noradrenaline-induced contractions of isolated rat vas deferens (pA2); type: cell-based; conditions: pA2 against noradrenaline, read-out: Action α-bloquante vis-à-vis de la noradrénaline PA2 sur canal déférent isolé (converted)
Excerpt: 2. Détermination de l'action α-adrénolytique "in vitro" sur le canal déférent du rat.
La noradrénaline provoque des contractions du canal déférent isolé de rat. La présence dans le bain de l'organe de substances α-bloquantes antagonise ces contractions.
L'utilisation de concentrations croissantes de substances α-bloquantes permet de calculer : . la PA₂ des composés sur le canal déférent de rat.
La PA₂ étant le logarithme changé de signe de la concentration molaire des produits B 1O2O - B 1O21 - B 1O37 - -B 1O59 en présence de laquelle il faut multiplier par deux la concentration de noradrénaline pour obtenir le même effet qu'en l'absence dudit produit.

[2] = Acute toxicity test in the mouse (oral); conditions: in vivo, read-out: Mortalité en %
Excerpt: 1. Tests de toxicité aiguë chez la souris
Les résultats sont rapportés dans le tableau 1.

[3] = test system: récepteurs α-adrénergiques; assay: Adrenolytic activity in vivo in the rat: protection against death induced by i.v. noradrenaline; conditions: 50 mg/kg P.O, 30 min before i.v. noradrenaline (0,4 mg/kg)
Method: 3. Détermination de l'activité adrénolytique "in vivo" chez le rat
. La noradrénaline injectée à fortes doses par voie intraveineuse provoque la mort de 1OO % des animaux dans les 15 min qui suivent son injection. La mort survient par oedème pulmonaire dû à l'hypertension artérielle induite principalement par la stimulation des récepteurs α-adrénergiques.
. L'administration préalable de substances α-adrénolytiques par voie orale permet de réduire la toxicité de la noradrénaline.
Les produits B 1O2O - B 1O21 - B 1O37 - B 1O59 sont administrés par voie orale 3O min avant l'injection intraveineuse de noradrénaline (O,4 mg/kg).

[4] = test system: effet hypertenseur de la noradrénaline; assay: Urethral specificity of alpha-blocking activity in vivo in the rabbit: inhibition of noradrenaline-induced rise of arterial and urethral pressure; set-up: species or system lapin; conditions: for ED50: Oryctolagus cuniculus, intravenous administration; for R DI50 (a) DI50 (u): ratio of arterial DI50 to urethral DI50
Excerpt: 4. Spécificité urétrale de l'activité alpha bloquante déterminée in vivo chez le lapin :
a) - Principe de la mesure
. La noradérnaline (I.V.) provoque des augmentations dépendantes des doses de la pression artérielle et de la pression urétrale. Les substances adrénolytiques alpha antagonisent ces augmentations de pression.
. Pour les produits B 1020 - B 1037 et B 1059 administrés par voie veineuse, nous avons déterminé les doses inhibant de 50 p. cent (DI₅₀ ) l'effet de la noradrénaline au niveau artériel et urétral et évaluer le rapport R de ces DI₅₀ .

[5] = arterial pressure, read-out: Doses inhibant de 50 p.cent (DI50) l'effet hypertenseur de la noradrénaline au niveau artériel DI50 (a)
[6] = urethral pressure, read-out: Doses inhibant de 50 p.cent (DI50) l'effet hypertenseur de la noradrénaline au niveau urétral DI50 (u)

## Cc1ccc(C(C)C)c(OCCCN2CCCCC2)c1 [B 1020, chlorhydrate du [(pipéridino-3)propoxy]-3 p.cymène]
[1]
  Kb: 302 nM
[2]; 100 mg/kg
  mortality: 0%
[2]; 1000 mg/kg
  mortality: 40%
[3]
  % de protection contre la mort: 80%
[4]; [5]
  ED50: > 3 mg/kg
[4]; [6]
  ED50: 1.7 mg/kg
[4]
  R DI50 (a) DI50 (u): > 1,7

## CC(=O)c1cc(C(C)C)c(OCCCN2CCCCC2)cc1C [B 1021, chlorhydratede l'acétyl-2-[(pipéridino-3)propoxy]-5 p.cymène]
[1]
  Kb: 1740 nM
[2]; 100 mg/kg
  mortality: 20%
[2]; 1000 mg/kg
  mortality: 100%
[3]
  % de protection contre la mort: 40%

## Cc1cc(OCCCN2CCCCC2)c(C(C)C)cc1O [B 1037, chlorhydratede l'hydroxy-2-[(pipéridino-3)propoxy]-5 p.cymène]
[1]
  Kb: 151 nM
[2]; 100 mg/kg
  mortality: 0%
[2]; 1000 mg/kg
  mortality: 100%
[3]
  % de protection contre la mort: 50%
[4]; [5]
  ED50: > 3 mg/kg
[4]; [6]
  ED50: 0.5 mg/kg
[4]
  R DI50 (a) DI50 (u): > 6

## CC(=O)Oc1cc(C(C)C)c(OCCCN2CCCCC2)cc1C [B 1059, chlorhydratede l'acétoxy-2-[(pipéridino-3)propoxy]-5 p.cymène]
[1]
  Kb: 126 nM
[2]; 100 mg/kg
  mortality: 0%
[2]; 1000 mg/kg
  mortality: 100%
[3]
  % de protection contre la mort: 50%
[4]; [5]
  ED50: > 3 mg/kg
[4]; [6]
  ED50: 0.8 mg/kg
[4]
  R DI50 (a) DI50 (u): > 3,7

## CC(=O)Oc1cc(C(C)C)c(OCCN(C)C)cc1C [Thymoxamine, chlorhydrate de thymoxamine, reference compound]
[1]
  Kb: 56.2 nM
[2]; 100 mg/kg
  mortality: 0%
[2]; 1000 mg/kg
  mortality: 100%
[3]
  % de protection contre la mort: 80%
[4]; [5]
  ED50: 2.9 mg/kg
[4]; [6]
  ED50: 0.7 mg/kg
[4]
  R DI50 (a) DI50 (u): 4,1
